Data from patent publication US20240043395A1, “COMPOUNDS AND COMPOSITIONS AS MODULATORS OF TLR SIGNALING” (Neuropore Therapies, Inc., priority 2020, published 2024).

How the values were obtained:
Format in all cases: cell-based
[1] = biological target: human TLR9 (Homo sapiens (Human), UniProt Q9NR96); experiment: HEK-Blue hTLR9 antagonism assay (SEAP reporter), agonist ODN 2006; settings: HEK-Blue hTLR9 cells; ODN 2006 (TLR9 agonist) at approx. 3×EC50; 18 h; exact values 8-point, approximate (~ or <) 4-point dilutions; read-out: IC50 (μM) with ODN2006
Chain of human TLR9 (Q9NR96 26-1032): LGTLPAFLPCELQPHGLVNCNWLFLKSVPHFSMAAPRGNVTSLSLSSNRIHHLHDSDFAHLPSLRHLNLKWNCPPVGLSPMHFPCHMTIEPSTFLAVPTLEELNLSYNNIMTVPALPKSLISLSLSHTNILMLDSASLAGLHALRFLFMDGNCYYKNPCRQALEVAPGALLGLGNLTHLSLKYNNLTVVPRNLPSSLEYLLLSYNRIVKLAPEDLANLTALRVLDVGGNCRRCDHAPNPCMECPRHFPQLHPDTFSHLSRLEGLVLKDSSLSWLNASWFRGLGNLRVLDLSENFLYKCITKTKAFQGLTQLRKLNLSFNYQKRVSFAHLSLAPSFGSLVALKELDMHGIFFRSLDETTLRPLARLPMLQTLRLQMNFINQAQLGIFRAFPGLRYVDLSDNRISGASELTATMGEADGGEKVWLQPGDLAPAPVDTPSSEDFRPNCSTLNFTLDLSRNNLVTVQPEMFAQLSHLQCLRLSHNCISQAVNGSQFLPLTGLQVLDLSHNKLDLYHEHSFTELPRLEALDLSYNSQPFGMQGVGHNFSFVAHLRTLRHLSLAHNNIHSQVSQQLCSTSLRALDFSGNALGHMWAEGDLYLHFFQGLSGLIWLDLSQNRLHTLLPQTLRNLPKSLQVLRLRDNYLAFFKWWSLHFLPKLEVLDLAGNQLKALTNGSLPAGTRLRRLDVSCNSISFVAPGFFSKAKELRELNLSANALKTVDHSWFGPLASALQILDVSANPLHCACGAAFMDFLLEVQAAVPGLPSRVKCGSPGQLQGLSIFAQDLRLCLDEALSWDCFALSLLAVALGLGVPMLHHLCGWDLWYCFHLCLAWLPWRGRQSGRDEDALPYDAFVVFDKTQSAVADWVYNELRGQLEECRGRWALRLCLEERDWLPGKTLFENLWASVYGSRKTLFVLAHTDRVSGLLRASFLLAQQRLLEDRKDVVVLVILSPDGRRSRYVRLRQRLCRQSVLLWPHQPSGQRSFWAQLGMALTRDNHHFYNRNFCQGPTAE
Procedure: Synthetic ODNs (ODN 2006 (ODN 7909), class B CpG oligonucleotide, TLR9 agonist) was obtained from InvivoGen and was dissolved in endotoxin-free water to a concentration 500 μM, vortexed until complete solubilization, and stored in aliquots at −20° C. Prior to addition to cells, an aliquot of the dissolved ligand was vortexed shortly and then was diluted in medium to 50 μM.
(§1) Test compounds were solubilized fresh to 10-20 mM stocks in DMSO and sonicated for 5-10 minutes in a water bath sonicator. Serial dilutions were prepared in DMSO, and then diluted in medium. The final concentration of DMSO used in the assay was 1%.
(§2) HEK-Blue hTLR9 reporter cells (InvivoGen) are HEK-293 cells stably expressing both the human TLR9 gene and a secreted embryonic alkaline phosphatase (SEAP) reporter construct downstream of NFκB promotor sites. HEK-Blue hTLR9 cells were cultured according to manufacturer's protocol using Dulbecco's Modified Eagle Medium (DMEM; Gibco) containing 1× GlutaMax (Gibco), 10% heat-inactivated Fetal Bovine Serum (Gibco), Pen-Strep (50 U/mL penicillin, 50 μg/mL streptomycin, Gibco), 100 μg/mL Normocin (InvivoGen), and the selective antibiotics, 10 μg/mL Blasticidin (InvivoGen), and 100 μg/mL Zeocin (InvivoGen). Quanti-Blue reagent (InvivoGen) for detection and quantification of secreted alkaline phosphatase was dissolved in 100 mL of endotoxin-free water, warmed to 37° C. for 30 minutes and then filtered using a 0.2 μm membrane.
(§3) On day 1, 50 μL of each test compound dilution in duplicates or a vehicle control was added to each well of a 96-well plate followed by addition of 150 μL of HEK-Blue hTLR9 cell suspension (1×10^5 cells/well) and incubated at 37° C./5% CO2 for 2 h. Next, 50 μL of an approximate 3×EC50 concentration of TLR9 agonist, ODN 2006, was added to the wells containing test compounds or the vehicle control. The plates were then incubated at 37° C./5% CO2 for 18 h. For each assay run, vehicle-treated HEK-Blue hTLR9 cells were treated with serial dilutions of agonist to determine EC50 values for the respective run.
On day 2, secreted alkaline phosphatase (SEAP) activity was detected in cell culture supernatants. In brief, 30 μL was collected from each well and transferred to a 96-well plate. Next, 200 μL of Quanti-Blue detection reagent was added to each well. Plates were incubated at 37° C. for 60 min. and SEAP activity was assessed by spectrophotometer OD reading at 655 nm. […] Exact IC50 values were calculated based on 8-point dilutions for each compound. Approximate IC50 values (˜ or <) were calculated based on 4-point dilutions for each compound.

[2] = biological target: T1, human TLR2 (Homo sapiens (Human), UniProt O60603); experiment: HEK-Blue hTLR2 antagonism assay (SEAP reporter), agonist Pam3CSK4; settings: HEK-Blue hTLR2 cells; Pam3CSK4 (TLR1/2 agonist) at approx. 3×EC50; 18 h; 8-point dilutions
T1 sequence (O60603 21-784): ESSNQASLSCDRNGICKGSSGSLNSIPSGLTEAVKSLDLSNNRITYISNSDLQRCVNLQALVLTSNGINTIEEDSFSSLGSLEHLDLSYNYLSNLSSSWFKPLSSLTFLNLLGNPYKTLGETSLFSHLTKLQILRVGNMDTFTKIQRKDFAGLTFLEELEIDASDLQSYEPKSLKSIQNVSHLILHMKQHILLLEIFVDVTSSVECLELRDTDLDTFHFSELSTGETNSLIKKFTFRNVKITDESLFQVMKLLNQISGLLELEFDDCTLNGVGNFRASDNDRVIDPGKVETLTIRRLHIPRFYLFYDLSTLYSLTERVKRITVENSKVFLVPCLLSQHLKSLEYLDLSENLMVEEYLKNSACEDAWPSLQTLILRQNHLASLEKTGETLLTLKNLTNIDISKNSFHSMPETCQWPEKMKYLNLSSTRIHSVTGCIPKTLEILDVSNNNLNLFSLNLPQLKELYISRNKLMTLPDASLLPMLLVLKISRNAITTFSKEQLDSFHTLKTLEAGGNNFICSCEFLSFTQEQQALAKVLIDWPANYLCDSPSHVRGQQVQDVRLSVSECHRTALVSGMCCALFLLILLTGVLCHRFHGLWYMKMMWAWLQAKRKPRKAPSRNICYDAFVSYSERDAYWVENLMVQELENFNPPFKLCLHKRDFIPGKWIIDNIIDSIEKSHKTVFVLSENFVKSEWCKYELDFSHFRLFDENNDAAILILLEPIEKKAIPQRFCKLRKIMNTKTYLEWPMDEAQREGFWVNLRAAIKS
Procedure: (§4) Synthetic diacylated lipoprotein (Pam2CSK4, TLR2/6 agonist) and synthetic triacylated lipoprotein (Pam3CSK4, TLR1/2 agonist) were obtained from InvivoGen and were dissolved in endotoxin-free water to a concentration 1 mg/mL, vortexed until complete solubilization, and stored in aliquots at −20° C. Prior to addition to cells, an aliquot of the dissolved ligand was vortexed shortly and then was diluted in medium to 25 ng/mL Pam2CSK4 or 1000 ng/mL Pam3CSK4.
as §1
as §2, with “hTLR2” for “hTLR9”, “TLR2” for “TLR9”, “hTLR2 reporters” for “hTLR9 cells”, “antibiotic, lx HEK-Blue Selection” for “antibiotics, 10 μg/mL Blasticidin (InvivoGen), and 100 μg/mL Zeocin”
as §3, with “hTLR2” for “hTLR9”, “each agonist (Pam2CSK4 or Pam3CSK4)” for “TLR9 agonist, ODN 2006,”, “non-treated” for “vehicle-treated”, “agonists” for “agonist”
(§5) On day 2, secreted alkaline phosphatase (SEAP) activity was detected in cell culture supernatants. In brief, 20 μL was collected from each well and transferred to a 96-well plate. Next, 200 μL of Quanti-Blue detection reagent was added to each well. Plates were incubated at room temperature for 15 min and SEAP activity was assessed by spectrophotometer OD reading at 655 nm. […] IC50 values were calculated based on 8-point dilutions for each compound.

[3] = biological target: T1, human TLR2; experiment: HEK-Blue hTLR2 antagonism assay (SEAP reporter), agonist Pam2CSK4; settings: HEK-Blue hTLR2 cells; Pam2CSK4 (TLR2/6 agonist) at approx. 3×EC50; 18 h; 8-point dilutions
Procedure: as §4, §1
as §2, with “hTLR2” for “hTLR9”, “TLR2” for “TLR9”, “hTLR2 reporters” for “hTLR9 cells”, “antibiotic, lx HEK-Blue Selection” for “antibiotics, 10 μg/mL Blasticidin (InvivoGen), and 100 μg/mL Zeocin”
as §3, with “hTLR2” for “hTLR9”, “each agonist (Pam2CSK4 or Pam3CSK4)” for “TLR9 agonist, ODN 2006,”, “non-treated” for “vehicle-treated”, “agonists” for “agonist”
as §5

Row | SMILES | IC50 [1] [µM] | IC50 [2] [µM] | IC50 [3] [µM]
1 | CN1CCN(/N=C/c2cc(-c3nc(-c4ccc(N5CCCC5)nc4)ns3)cc(F)c2O)CC1 [Compound 165, 2-fluoro-6-(((4-methylpiperazin-1-yl)imino)methyl)-4-(3-(6-(pyrrolidin-1-yl)pyridin-3-yl)-1,2,4-thiadiazol-5-yl)phenol] | 0.41 | 0.9 | 1.1
2 | O=Cc1cc(C(=O)Nc2ncc(-c3ccc(F)cc3)s2)cc(F)c1O [Compound 11, 3-fluoro-N-(5-(4-fluorophenyl)thiazol-2-yl)-5-formyl-4-hydroxybenzamide] | 0.4 | 0.7 | 1
3 | O=C(c1cc(F)c(O)c(/C=N/N2CCOCC2)c1)N1CCC(c2ccc(N3CCCC3)cc2)CC1 [Compound 164, (3-fluoro-4-hydroxy-5-((morpholinoimino)methyl)phenyl)(4-(4-(pyrrolidin-1-yl)phenyl)piperidin-1-yl)methanone] | 0.26 | 0.5 | 1.1
4 | COCCN1C(=O)Oc2c(F)cc(-c3nc(-c4ccc(N5CCCC5)cc4)ns3)cc2C1O (centres unmarked) [Compound 179, 8-fluoro-4-hydroxy-3-(2-methoxyethyl)-6-(3-(4-(pyrrolidin-1-yl)phenyl)-1,2,4-thiadiazol-5-yl)-3,4-dihydro-2H-benzo[e][1,3]oxazin-2-one] | – | 0.2 | 0.8
5 | O=Cc1cc(C(=O)N2CCCN(c3cccc(N4CCCC4)c3)CC2)cc(F)c1O [Compound 98, 3-fluoro-2-hydroxy-5-(4-(3-(pyrrolidin-1-yl)phenyl)-1,4-diazepane-1-carbonyl)benzaldehyde] | – | 18.1 | 15.1
6 | CN(C)C(=O)Oc1c(F)cc(-c2nc(-c3ccc(N4CCCC4)cc3)ns2)cc1C=O [Compound 173, 2-fluoro-6-formyl-4-(3-(4-(pyrrolidin-1-yl)phenyl)-1,2,4-thiadiazol-5-yl)phenyl dimethylcarbamate] | – | 0.5 | 0.9
7 | O=Cc1cc(C(=O)N2CCO[C@@H](c3ccc(N4CCCC4)cc3)C2)cc(F)c1O (single isomer, unassigned) [Compound 148] | – | 1.88 | 4.99
8 | O=Cc1cc(-c2nc(-c3ccc(N4CCCC4)cc3)ns2)cc(F)c1OC(=O)N1CCOCC1 [Compound 174, 2-fluoro-6-formyl-4-(3-(4-(pyrrolidin-1-yl)phenyl)-1,2,4-thiadiazol-5-yl)phenyl morpholine-4-carboxylate] | – | 0.6 | 1.5
9 | O=Cc1cc(C(=O)Nc2cnc(N3CCCC3)s2)cc(F)c1O [Compound 8, 3-fluoro-5-formyl-4-hydroxy-N-(2-(pyrrolidin-1-yl)thiazol-5-yl)benzamide] | – | 12.9 | 17.7
10 | O=Cc1cc(C(=O)Nc2ccc(N3CCCC3)nn2)cc(F)c1O [Compound 92, 3-fluoro-5-formyl-4-hydroxy-N-(6-(pyrrolidin-1-yl)pyridazin-3-yl)benzamide] | – | 39 | 59
11 | O=Cc1cc(C(=O)N2CCC(c3cccc(N4CCCC4)c3)CC2)cc(F)c1O [Compound 35, 3-fluoro-2-hydroxy-5-(4-(3-(pyrrolidin-1-yl)phenyl)piperidine-1-carbonyl)benzaldehyde] | – | 8 | 13.8
12 | O=Cc1cc(C(=O)NNc2cccc(Br)c2)cc(F)c1O [Compound 160, N′-(3-bromophenyl)-3-fluoro-5-formyl-4-hydroxybenzohydrazide] | – | 26.5 | 38.4
13 | O=Cc1cc(C(=O)Nc2cnc(-c3ccnc(N4CCCC4)c3)s2)cc(F)c1O [Compound 168, 3-fluoro-5-formyl-4-hydroxy-N-(2-(2-(pyrrolidin-1-yl)pyridin-4-yl)thiazol-5-yl)benzamide] | – | 9.6 | 15.8
14 | O=Cc1cc(C(=O)NCCc2ccc(N3CCCC3)cc2)cc(F)c1O [Compound 143, 3-fluoro-5-formyl-4-hydroxy-N-(4-(pyrrolidin-1-yl)phenethyl)benzamide] | – | 12.3 | 17
15 | C[C@H]1[C@H](c2ccc(N3CCCC3)cc2)OCCN1C(=O)c1cc(F)c(O)c(C=O)c1 (racemic) [Compound 151, rac-3-fluoro-2-hydroxy-5-((2S,3S)-3-methyl-2-(4-(pyrrolidin-1-yl)phenyl)morpholine-4-carbonyl)benzaldehyde] | – | 7 | 16.9
16 | O=Cc1cc(-c2nc(-c3ccc(N4CCCC4)nc3)ns2)cc(F)c1O [Compound 130, 3-fluoro-2-hydroxy-5-(3-(6-(pyrrolidin-1-yl)pyridin-3-yl)-1,2,4-thiadiazol-5-yl)benzaldehyde] | – | 0.8 | 1.3
17 | O=Cc1cc(C(=O)Nc2ncc(N3CCN(C4CC4)CC3)s2)cc(F)c1O [Compound 5, N-(5-(4-cyclopropylpiperazin-1-yl)thiazol-2-yl)-3-fluoro-5-formyl-4-hydroxybenzamide] | – | 2.7 | 5.3
18 | O=Cc1cc(C(=O)N2CCCC2c2ccc(N3CCCC3)cc2)cc(F)c1O (racemic) [Compound 155, rac-3-fluoro-2-hydroxy-5-(2-(4-(pyrrolidin-1-yl)phenyl)pyrrolidine-1-carbonyl)benzaldehyde] | – | 9.62 | 15.7
19 | O=Cc1cc(-c2cnc(-c3ccc(N4CCCC4)nc3)s2)ncc1O [Compound 129, 5-hydroxy-2-(2-(6-(pyrrolidin-1-yl)pyridin-3-yl)thiazol-5-yl)isonicotinaldehyde] | – | 0.4 | 0.7
20 | O=Cc1cc(C(=O)N2CCOC(c3cccc(N4CCCC4)c3)C2)cc(F)c1O (racemic) [Compound 150, rac-3-fluoro-2-hydroxy-5-(2-(3-(pyrrolidin-1-yl)phenyl)morpholine-4-carbonyl)benzaldehyde] | – | 3.1 | 7.5
21 | O=Cc1cc(C(=O)N2CCC(c3ccc(N4CCCC4)nc3)CC2)cc(F)c1O [Compound 37, 3-fluoro-2-hydroxy-5-(4-(6-(pyrrolidin-1-yl)pyridin-3-yl)piperidine-1-carbonyl)benzaldehyde] | – | 4.8 | 6.2
22 | O=Cc1cc(-c2nc(-c3ccc(N4CCCC4)cc3)ns2)cc(F)c1OC(=O)N1CCCC1 [Compound 172, 2-fluoro-6-formyl-4-(3-(4-(pyrrolidin-1-yl)phenyl)-1,2,4-thiadiazol-5-yl)phenyl pyrrolidine-1-carboxylate] | – | 0.5 | 1
